US20190343922A1, “HISTATIN FOR CORNEAL WOUND HEALING AND OCULAR SURFACE DISEASE” (Rapid Pathogen Screening, Inc., priority 2012, published 2019)

Columns and labels:
corneal wounds = assay: Corneal epithelial defect wound healing in rabbits (fluorescein staining, computerized area determination); format: in vivo, New Zealand White rabbits
Procedure: The study disclosed herein evaluates and quantifies the wound healing effects of histatins on the ocular surface of New Zealand White rabbits.
Epithelial defects are created in the right eye (oculus dexter, OD) of 12 New Zealand White rabbits. Due to animal regulations, bilateral wounding is not permitted. After the epithelial defects are made, the rabbits are randomized into treatment groups. Two (2) groups are treated with different cyclized histatin concentrations: 0.1 μg/ml and 10 μg/ml dissolved into an ophthalmic artificial tear preparation and delivered to the rabbits as an eye drop three times daily. Histatins known in the art, including, but not limited to, amino acid SEQ ID NOS: 1 through 33, which include Hst-1 (SEQ ID NO: 4), Hst-2 (SEQ ID NO: 5), Hst-3 (SEQ ID NO: 6), Hst-5 (SEQ ID NO: 30), and sortase cyclized histatin (SEQ ID NO: 33), may be used in these studies or in treatment protocols. […] This control group should receive the same vehicle identical to the other two groups but without histatin. An over-the-counter artificial tear preferably serves as the vehicle. The initial study included four (4) animals/group in three (3) groups, for a total of twelve rabbits.
Each rabbit group is preferably given moxifloxicin treatment to prevent infection.
(§1) The corneal wounds are then evaluated daily for the corneal wound healing abilities of histatin via fluorescein staining, fluorescent slit lamp biomicrophotography and computerized area determination. Evaluators are masked to the therapeutic treatment given to the rabbits. After healing, two (2) animals from each group are euthanized, and the corneas collected for histological processing (H&E staining with subsequent evaluation by veterinary histopathologist). The decision to perform histopathologic analysis after tissue procurement is made only if there is proven difference in healing between the different treatment groups and the controls. At study termination (study preferably continues for seven days), the remaining animals are euthanized.

rabbit corneas = settings: in vivo
Procedure: as §1
The histatin used in this study was cyclized histatin 1.

“cyclo(DNLPETGGDSHEKRHHGYRRKFHEKHHSHREFPFYGDYGSNYLY) [cyclized histatin 1]” was tested. Which Corneal wound size (corneal wounds; 0.1 μg/ml eye drop three times daily, 54 hours post wound) did it give?
The Corneal wound size was 0.00 ± 0.00 mm^2.

And the Corneal wound size (corneal wounds; 0.1 μg/ml eye drop three times daily, 72 hours post wound)?
The Corneal wound size was 0.00 ± 0.00 mm^2.

And the “Percentage of 1 hour post wound size” value (corneal wounds; 0.1 ug/ml, 0 hours post wound)?
The value was 100%.

What about the “Percentage of 1 hour post wound size” value (corneal wounds; 0.1 ug/ml, 6 hours post wound) of the same substance?
Its value is 85%.

And the “Percentage of 1 hour post wound size” value (corneal wounds; 0.1 ug/ml, 24 hours post wound)?
Its value is 69%.

And the “Percentage of 1 hour post wound size” value (corneal wounds; 0.1 ug/ml, 30 hours post wound)?
Its value is 43%.

What about the “Percentage of 1 hour post wound size” value (corneal wounds; 0.1 ug/ml, 48 hours post wound) of the same substance?
Its value is 2%.

What about the “Percentage of 1 hour post wound size” value (corneal wounds; 0.1 ug/ml, 54 hours post wound) of the same substance?
Its value is 0%.

And the “Percentage of 1 hour post wound size” value (corneal wounds; 0.1 ug/ml, 72 hours post wound)?
The value was 0%.

What about the Corneal wound size (corneal wounds; 10 μg/ml eye drop three times daily, 48 hours post wound) of the same substance?
The Corneal wound size was 0.00 ± 0.07 mm^2.

What about the Corneal wound size (corneal wounds; 10 μg/ml eye drop three times daily, 54 hours post wound) of the same substance?
The Corneal wound size was 0.00 ± 0.00 mm^2.

What about the Corneal wound size (corneal wounds; 10 μg/ml eye drop three times daily, 72 hours post wound) of the same substance?
The Corneal wound size was 0.00 ± 0.00 mm^2.

And the “Percentage of 1 hour post wound size” value (corneal wounds; 10 ug/ml, 0 hours post wound)?
The value was 100%.

What about the “Percentage of 1 hour post wound size” value (corneal wounds; 10 ug/ml, 6 hours post wound) of the same substance?
The value was 84%.

What about the “Percentage of 1 hour post wound size” value (corneal wounds; 10 ug/ml, 24 hours post wound) of the same substance?
The value was 58%.

And the “Percentage of 1 hour post wound size” value (corneal wounds; 10 ug/ml, 30 hours post wound)?
Its value is 43%.

And the “Percentage of 1 hour post wound size” value (corneal wounds; 10 ug/ml, 48 hours post wound)?
The value was 0%.

What about the “Percentage of 1 hour post wound size” value (corneal wounds; 10 ug/ml, 54 hours post wound) of the same substance?
The value was 0%.

What about the “Percentage of 1 hour post wound size” value (corneal wounds; 10 ug/ml, 72 hours post wound) of the same substance?
Its value is 0%.

What about the “Healing activity of corneal wounds” value (corneal wounds; 0.1 and 10 μg/ml vs control, rabbits) of the same substance?
The value was “significant dose dependent accelerated healing activity”.

What about the “Wound healing speed compared with control at each time point” value (corneal wounds; wounds treated with 0.1 μg/ml or 10 μg/ml) of the same substance?
The value was “healed faster”.

What about the “Toxicity on pathological analysis of corneas” value (rabbit corneas) of the same substance?
Its value is “no toxicity”.
